Target: T1, MMP-13 (Homo sapiens, UniProt P45452)
T1 construct: 10 μL of a 50 nM stock solution of catalytic domain of MMP-13 enzyme; purchased Invitek (Berlin) 30100812
Test: Assay for Determining MMP-13 Inhibition
Format: biochemical
Conditions: catalytic domain of MMP-13, fluorescent substrate
Method: The typical assay for MMP-13 activity is carried out in assay buffer comprised of 50 mM Tris, pH 7.5, 150 mM NaCl, 5 mM CaCl2 and 0.05% Brij-35. Different concentrations of tested compounds are prepared in assay buffer in 50 μL aliquots. 10 μL of a 50 nM stock solution of catalytic domain of MMP-13 enzyme (produced by Alantos or commercially available from Invitek (Berlin), Cat.# 30100812) is added to the compound solution. The mixture of enzyme and compound in assay buffer is thoroughly mixed and incubated for 10 min at room temperature. Upon the completion of incubation, the assay is started by addition of 40 μL of a 12.5 μM stock solution of MMP-13 fluorescent substrate (Calbiochem, Cat. No. 444235). The time-dependent increase in fluorescence is measured at the 320 nm excitation and 390 nm emission by automatic plate multireader. The IC50 values are calculated from the initial reaction rates.

| Structure (SMILES) | IC50 [µM] |
| --- | --- |
| Nc1c(N2CCc3ccc(CNC(=O)c4nc(O)nc5ccccc45)cc3C2)c(=O)c1=O [Example 1] | < 0.5 |
| Nc1c(N2CCc3ccc(CNC(=O)c4cnc5ccccc5n4)cc3C2)c(=O)c1=O [2/50] | < 0.5 |

Reference: patent US20080221094A1, “Metalloprotease inhibitors containing a squaramide moiety” (priority 2007, published 2008)
